# Paper PMC11672292, “Discovery of Balasubramide Derivative with Tissue‐Specific Anti‐Inflammatory Activity Against Acute Lung Injury by Targeting VDAC1” (Advanced Science, 2024)
# Where two headings read alike, the source gives them in different places.
# Columns and labels:
# [1] = Pharmacokinetics and tissue distribution after single intravenous administration; type: in vivo, mouse; settings: mice; for half-life: read-out: t1/2 (converted)
# Experimental: Pharmacokinetic studies were performed as previously described.^[ [63] ^] Briefly, ICR mice were fasted without water for 16 h before drug administration and allowed access to food and water freely after administration. After given a single intravenous administration of (+)3C‐20 (10 mg kg^−1), mice were anesthetized with isoflurane, and blood samples were collected through jugular vein at different time points (0, 0.083, 0.25, 0.5, 1, 2, 4, 6, 8, 24 h), as well as at different time points (0.5, 2, 6, 24 h) mice were euthanized and brain, heart, liver, spleen, lung, and kidney were collected. Blood samples were collected in tubes containing sodium heparin and centrifuged at 5000 rpm at 4 °C for 10 min to prepare plasma, tissues were cleaned in prechilled saline and homogenized to be tested, and all samples were stored at […]. LC‐MS/MS was performed to determine the concentrations of (+)3C‐20 in the plasma and tissues of the mice and to calculate the related pharmacokinetic parameters, which were then used to investigate the pharmacokinetic characteristics and tissue distribution of (+)3C‐20 in mice.
# [2] = test system: BMDMs; assay: Cytosolic mtDNA measurement (qPCR) in BMDMs; type: cell-based, mouse; settings: 10 µM
# Experimental: BMDMs were stimulated and treated with 10 µM (+)3C‐20 as indicated. Cytosolic mtDNA collection was carried out as previously described.^[ [25] ^] Briefly, BMDMs were washed twice with PBS, harvested, and resuspended in 200 µL mitochondria isolation reagent (Beyotime, C3601) with protease and phosphatase inhibitor cocktail. Cell resuspension was triturated with a glass homogenizer and centrifuged at 11 000 × g for 10 min at 4 °C to pelleted down mitochondria and cell membrane, and the remaining supernatant contained the cytosolic mtDNA that were measured. After DNA purification from the supernatant with FastPure Cell DNA Isolation Mini Kit (DC102‐01, Vazyme, China) according to the manufacturer's instruction, qPCR was performed using specific mtDNA primers (D‐loop, D‐loop1, D‐loop2, D‐loop3).
# [3] = test system: mice; assay: Acute toxicity (LD50, sequential method), single intravenous injection; settings: i.v.
# From the text: To test the safety of (+)3C‐20 in mice, as previously reported,^[ [31] ^] we estimated the acute toxicity of (+)3C‐20 in mice using a sequential method.
# [4] = ICR, mouse, iv, single i.v. 10 mg/kg, Plasma
# [5] = ICR, mouse, iv, single i.v. 10 mg/kg, Spleen
# [6] = ICR, mouse, kidney, iv, single i.v. 10 mg/kg, read-out: Concentration of (+)3C-20, Kidney
# [7] = ICR, mouse, liver, iv, single i.v. 10 mg/kg, read-out: Concentration of (+)3C-20, Liver
# [8] = ICR, mouse, lung, iv, single i.v. 10 mg/kg, read-out: Concentration of (+)3C-20, Lung
# [9] = ICR, mouse, spleen, iv, single i.v. 10 mg/kg, read-out: Concentration of (+)3C-20, Spleen
smiles,measurement,setting,value
O=C(CCc1ccc(C(F)(F)F)cc1)O[C@@H]1C(=O)NCCc2c([nH]c3ccccc23)[C@H]1c1ccc(C(F)(F)F)cc1 [(+)3C-20],clearance,[1]; [4],2.11 L/h/kg
same,k el,[1]; [4],3.97e-05 s⁻¹
same,Vd,"[1]; ICR, mouse, iv, single i.v. 10 mg/kg, Plasma, read-out: VdSS",6.1 L/kg
same,half-life,[1]; [4],4.88 h
same,AUC(0-inf),[1]; [5],9.84 µg·h/mL
same,AUC(0-t),[1]; [5],9.56 µg·h/mL
same,C0,[1]; [5],6.8 µg/mL
same,Cmax,[1]; [5],4.37 µg/mL
same,k el,[1]; [5],0.000161 s⁻¹
same,Kp,"[1]; ICR, mouse, iv, single i.v. 10 mg/kg, Spleen, read-out: Tissues/plasma ratio",2.24
same,half-life,[1]; [5],1.2 h
same,concentration at 0.5 h,[1]; [6],5010 ± 516 ng/g
same,concentration at 2 h,[1]; [6],2840 ± 692 ng/g
same,concentration at 6 h,[1]; [6],299 ± 25.1 ng/g
same,concentration at 0.5 h,[1]; [7],4370 ± 1010 ng/g
same,concentration at 2 h,[1]; [7],1160 ± 434 ng/g
same,concentration at 6 h,[1]; [7],159 ± 51.7 ng/g
same,concentration at 0.5 h,[1]; [8],7780 ± 525 ng/g
same,concentration at 2 h,[1]; [8],2300 ± 281 ng/g
same,concentration at 6 h,[1]; [8],440 ± 50.4 ng/g
same,concentration at 24 h,"[1]; ICR, mouse, lung, iv, single i.v. 10 mg/kg, 24 h, read-out: Concentration of (+)3C-20, Lung",23.8 ± 9.4 ng/g
same,concentration at 0.5 h,[1]; [9],1450 ± 79.6 ng/g
same,concentration at 2 h,[1]; [9],595 ± 192 ng/g
same,concentration at 6 h,[1]; [9],98.7 ± 60 ng/g
same,lung tissue/plasma ratio in various organs,[1]; i.v. 10 mg kg^−1,highest
same,AUMC0-inf,"[1]; single i.v. 10 mg/kg, Blood",15950.5 h·h·ng·mL^-1
same,AUMC0-t,"[1]; single i.v. 10 mg/kg, Blood",11638.5 h·h·ng·mL^-1
same,MRTIV,"[1]; single i.v. 10 mg/kg, Blood",4.425 h
same,Tissues/plasma ratio,"[1]; single i.v. 10 mg/kg, Blood",0.734
same,AUMC0-inf,"[1]; single i.v. 10 mg/kg, Brain",19922 h·h·ng·mL^-1
same,AUMC0-t,"[1]; single i.v. 10 mg/kg, Brain",14234 h·h·ng·mL^-1
same,MRTIV,"[1]; single i.v. 10 mg/kg, Brain",6.3 h
same,AUMC0-inf,"[1]; single i.v. 10 mg/kg, Heart",12176 h·h·ng·mL^-1
same,AUMC0-t,"[1]; single i.v. 10 mg/kg, Heart",10724 h·h·ng·mL^-1
same,MRTIV,"[1]; single i.v. 10 mg/kg, Heart",1.2 h
same,AUMC0-inf,"[1]; single i.v. 10 mg/kg, Kidney",6846 h·h·ng·mL^-1
same,AUMC0-t,"[1]; single i.v. 10 mg/kg, Kidney",5185 h·h·ng·mL^-1
same,MRTIV,"[1]; single i.v. 10 mg/kg, Kidney",1.72 h
same,AUMC0-inf,"[1]; single i.v. 10 mg/kg, Liver",26259 h·h·ng·mL^-1
same,AUMC0-t,"[1]; single i.v. 10 mg/kg, Liver",21734 h·h·ng·mL^-1
same,MRTIV,"[1]; single i.v. 10 mg/kg, Liver",1.69 h
same,AUMC0-inf,"[1]; single i.v. 10 mg/kg, Lung",54321 h·h·ng·mL^-1
same,AUMC0-t,"[1]; single i.v. 10 mg/kg, Lung",50741 h·h·ng·mL^-1
same,MRTIV,"[1]; single i.v. 10 mg/kg, Lung",2.45 h
same,AUMC0-inf,"[1]; single i.v. 10 mg/kg, Plasma",13980 h·h·ng·mL^-1
same,AUMC0-t,"[1]; single i.v. 10 mg/kg, Plasma",11982 h·h·ng·mL^-1
same,MRTIV,"[1]; single i.v. 10 mg/kg, Plasma",2.91 h
same,AUMC0-inf,"[1]; single i.v. 10 mg/kg, Spleen",12590 h·h·ng·mL^-1
same,AUMC0-t,"[1]; single i.v. 10 mg/kg, Spleen",10456 h·h·ng·mL^-1
same,MRTIV,"[1]; single i.v. 10 mg/kg, Spleen",1.28 h
same,increase in cytosolic mtDNA caused by LPS,[2],significantly inhibited
same,Mortality,[3]; dosage 141.42 mg/kg,0
same,Mortality,[3]; dosage 168.18 mg/kg,20
same,Mortality,[3]; dosage 200.00 mg/kg,83.33
same,Mortality,[3]; dosage 237.84 mg/kg,100
